Experimental findings from ChEMBL document CHEMBL3991601, “The target landscape of clinical kinase drugs” (Science, 2017) are described below.

The structures appear in SMILES notation. Active and inactive are the calls of the source. Bounds are passed on as bounds.

Experiment [1] concerns the target T1, Serine/threonine-protein kinase NLK (Homo sapiens, UniProt Q9UBE8).
T1 sequence (Q9UBE8 whole entry): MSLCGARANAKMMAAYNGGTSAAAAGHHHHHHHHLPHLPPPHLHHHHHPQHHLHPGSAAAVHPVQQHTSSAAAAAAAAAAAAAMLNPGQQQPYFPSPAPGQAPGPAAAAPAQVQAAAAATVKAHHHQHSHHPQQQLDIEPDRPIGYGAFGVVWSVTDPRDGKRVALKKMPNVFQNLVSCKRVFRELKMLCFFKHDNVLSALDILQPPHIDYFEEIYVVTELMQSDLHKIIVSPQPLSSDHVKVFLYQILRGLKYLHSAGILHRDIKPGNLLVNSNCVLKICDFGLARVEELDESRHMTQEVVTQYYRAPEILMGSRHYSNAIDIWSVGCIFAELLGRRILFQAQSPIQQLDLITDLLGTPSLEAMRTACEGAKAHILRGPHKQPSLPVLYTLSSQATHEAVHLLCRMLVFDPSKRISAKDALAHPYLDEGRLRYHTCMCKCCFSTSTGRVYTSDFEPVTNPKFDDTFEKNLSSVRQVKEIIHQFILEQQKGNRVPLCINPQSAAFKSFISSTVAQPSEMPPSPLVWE

Experiment [2] has as its target T2, Dynamin-like GTPase OPA1, mitochondrial (Homo sapiens, UniProt O60313).
T2 sequence (O60313 whole entry): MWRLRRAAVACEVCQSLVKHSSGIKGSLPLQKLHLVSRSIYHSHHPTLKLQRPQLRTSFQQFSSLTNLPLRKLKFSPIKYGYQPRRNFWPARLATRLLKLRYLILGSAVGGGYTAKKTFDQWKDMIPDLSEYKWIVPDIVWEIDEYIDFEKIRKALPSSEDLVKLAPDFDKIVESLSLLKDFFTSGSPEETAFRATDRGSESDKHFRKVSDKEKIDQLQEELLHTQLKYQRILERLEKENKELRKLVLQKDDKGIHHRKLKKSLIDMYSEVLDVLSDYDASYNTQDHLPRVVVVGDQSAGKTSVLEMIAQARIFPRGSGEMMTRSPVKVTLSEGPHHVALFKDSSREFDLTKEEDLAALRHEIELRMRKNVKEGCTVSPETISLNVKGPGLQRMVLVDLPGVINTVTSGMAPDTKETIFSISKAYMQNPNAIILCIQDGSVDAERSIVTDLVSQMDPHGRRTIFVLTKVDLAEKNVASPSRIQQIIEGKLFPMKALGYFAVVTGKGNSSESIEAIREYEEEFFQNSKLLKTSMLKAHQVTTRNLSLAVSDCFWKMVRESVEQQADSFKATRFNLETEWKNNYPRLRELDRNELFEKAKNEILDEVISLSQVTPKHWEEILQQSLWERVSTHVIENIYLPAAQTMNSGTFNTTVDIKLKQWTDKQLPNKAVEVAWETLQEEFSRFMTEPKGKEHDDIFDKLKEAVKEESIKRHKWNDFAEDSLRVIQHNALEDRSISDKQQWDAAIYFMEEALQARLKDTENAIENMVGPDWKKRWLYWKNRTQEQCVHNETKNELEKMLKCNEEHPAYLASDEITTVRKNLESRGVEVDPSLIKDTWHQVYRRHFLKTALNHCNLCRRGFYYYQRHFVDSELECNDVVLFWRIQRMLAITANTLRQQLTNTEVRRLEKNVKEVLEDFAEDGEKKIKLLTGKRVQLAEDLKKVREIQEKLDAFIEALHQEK

The target of experiment [3] is Structural maintenance of chromosomes protein 2 (Homo sapiens, UniProt O95347).
Structural maintenance of chromosomes protein 2, sequence (O95347 whole entry): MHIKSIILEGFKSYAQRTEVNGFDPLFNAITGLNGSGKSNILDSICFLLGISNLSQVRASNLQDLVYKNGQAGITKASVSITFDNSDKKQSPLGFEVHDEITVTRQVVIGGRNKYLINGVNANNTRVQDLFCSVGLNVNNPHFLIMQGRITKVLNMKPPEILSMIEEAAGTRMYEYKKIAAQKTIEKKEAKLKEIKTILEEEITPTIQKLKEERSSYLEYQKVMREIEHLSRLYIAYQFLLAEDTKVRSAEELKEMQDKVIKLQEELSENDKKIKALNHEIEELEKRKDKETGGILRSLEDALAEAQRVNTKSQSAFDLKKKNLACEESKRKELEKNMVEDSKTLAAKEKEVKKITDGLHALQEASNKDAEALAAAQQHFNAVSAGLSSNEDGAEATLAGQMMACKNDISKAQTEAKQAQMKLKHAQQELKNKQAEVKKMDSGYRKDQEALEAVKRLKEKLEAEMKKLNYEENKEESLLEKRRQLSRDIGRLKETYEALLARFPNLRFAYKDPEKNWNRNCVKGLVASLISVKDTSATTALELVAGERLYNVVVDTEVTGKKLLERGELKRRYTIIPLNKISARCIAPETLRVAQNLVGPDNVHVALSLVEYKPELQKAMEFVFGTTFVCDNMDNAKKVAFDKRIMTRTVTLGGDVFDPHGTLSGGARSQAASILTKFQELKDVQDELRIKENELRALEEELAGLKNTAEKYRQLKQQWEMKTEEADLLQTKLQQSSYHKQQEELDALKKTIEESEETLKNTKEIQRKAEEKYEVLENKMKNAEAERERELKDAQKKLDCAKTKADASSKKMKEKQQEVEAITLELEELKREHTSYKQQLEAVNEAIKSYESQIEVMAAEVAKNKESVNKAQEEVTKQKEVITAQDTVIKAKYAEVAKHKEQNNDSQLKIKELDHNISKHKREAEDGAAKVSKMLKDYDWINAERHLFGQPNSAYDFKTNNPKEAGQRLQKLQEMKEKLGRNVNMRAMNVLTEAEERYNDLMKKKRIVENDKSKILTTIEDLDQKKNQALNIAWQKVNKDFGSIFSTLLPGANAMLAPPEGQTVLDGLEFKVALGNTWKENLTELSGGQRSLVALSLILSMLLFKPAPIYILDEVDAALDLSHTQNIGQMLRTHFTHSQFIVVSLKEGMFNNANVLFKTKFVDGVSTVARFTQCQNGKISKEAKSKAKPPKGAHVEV
Experiment [4] has as its target T3, Very long-chain specific acyl-CoA dehydrogenase, mitochondrial (Homo sapiens, UniProt P49748).
T3 sequence (P49748 whole entry): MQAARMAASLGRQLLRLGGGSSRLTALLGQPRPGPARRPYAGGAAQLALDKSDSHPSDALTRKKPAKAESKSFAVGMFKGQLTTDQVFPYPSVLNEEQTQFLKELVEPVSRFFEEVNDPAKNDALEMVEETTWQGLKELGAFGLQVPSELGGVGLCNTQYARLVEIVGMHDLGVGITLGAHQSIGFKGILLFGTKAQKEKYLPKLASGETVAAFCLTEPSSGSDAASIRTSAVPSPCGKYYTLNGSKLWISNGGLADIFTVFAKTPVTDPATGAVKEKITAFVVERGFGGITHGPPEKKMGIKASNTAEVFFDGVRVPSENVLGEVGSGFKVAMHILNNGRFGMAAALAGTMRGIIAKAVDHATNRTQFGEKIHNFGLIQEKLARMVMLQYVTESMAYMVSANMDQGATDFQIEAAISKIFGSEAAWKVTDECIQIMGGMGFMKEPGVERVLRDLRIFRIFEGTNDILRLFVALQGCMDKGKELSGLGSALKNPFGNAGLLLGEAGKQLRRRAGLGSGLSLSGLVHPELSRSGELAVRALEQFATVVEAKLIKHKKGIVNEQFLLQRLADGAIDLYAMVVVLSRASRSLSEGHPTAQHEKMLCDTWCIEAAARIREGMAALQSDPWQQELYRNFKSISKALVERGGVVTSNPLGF

Experiment [5] addresses Non-receptor tyrosine-protein kinase TYK2 (Homo sapiens, UniProt P29597).
The target of another experiment is T4, Activin receptor type-1 (Homo sapiens, UniProt Q04771).
T4 sequence (Q04771 whole entry): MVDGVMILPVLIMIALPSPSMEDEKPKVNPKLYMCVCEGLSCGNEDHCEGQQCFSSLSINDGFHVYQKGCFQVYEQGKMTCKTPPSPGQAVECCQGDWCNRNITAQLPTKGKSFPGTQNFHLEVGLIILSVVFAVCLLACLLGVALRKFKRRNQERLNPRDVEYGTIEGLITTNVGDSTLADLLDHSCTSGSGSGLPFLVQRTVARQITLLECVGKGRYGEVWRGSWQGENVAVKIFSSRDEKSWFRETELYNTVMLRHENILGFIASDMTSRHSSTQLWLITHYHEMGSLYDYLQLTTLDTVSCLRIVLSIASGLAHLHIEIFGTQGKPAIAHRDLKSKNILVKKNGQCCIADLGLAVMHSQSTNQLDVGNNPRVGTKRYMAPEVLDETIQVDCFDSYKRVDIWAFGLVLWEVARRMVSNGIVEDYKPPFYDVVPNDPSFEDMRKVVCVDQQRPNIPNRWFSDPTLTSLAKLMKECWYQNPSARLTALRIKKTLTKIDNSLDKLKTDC

In experiment [6] the target is Mitogen-activated protein kinase kinase kinase kinase 1 (Homo sapiens, UniProt Q92918).
Mitogen-activated protein kinase kinase kinase kinase 1, sequence (Q92918 whole entry): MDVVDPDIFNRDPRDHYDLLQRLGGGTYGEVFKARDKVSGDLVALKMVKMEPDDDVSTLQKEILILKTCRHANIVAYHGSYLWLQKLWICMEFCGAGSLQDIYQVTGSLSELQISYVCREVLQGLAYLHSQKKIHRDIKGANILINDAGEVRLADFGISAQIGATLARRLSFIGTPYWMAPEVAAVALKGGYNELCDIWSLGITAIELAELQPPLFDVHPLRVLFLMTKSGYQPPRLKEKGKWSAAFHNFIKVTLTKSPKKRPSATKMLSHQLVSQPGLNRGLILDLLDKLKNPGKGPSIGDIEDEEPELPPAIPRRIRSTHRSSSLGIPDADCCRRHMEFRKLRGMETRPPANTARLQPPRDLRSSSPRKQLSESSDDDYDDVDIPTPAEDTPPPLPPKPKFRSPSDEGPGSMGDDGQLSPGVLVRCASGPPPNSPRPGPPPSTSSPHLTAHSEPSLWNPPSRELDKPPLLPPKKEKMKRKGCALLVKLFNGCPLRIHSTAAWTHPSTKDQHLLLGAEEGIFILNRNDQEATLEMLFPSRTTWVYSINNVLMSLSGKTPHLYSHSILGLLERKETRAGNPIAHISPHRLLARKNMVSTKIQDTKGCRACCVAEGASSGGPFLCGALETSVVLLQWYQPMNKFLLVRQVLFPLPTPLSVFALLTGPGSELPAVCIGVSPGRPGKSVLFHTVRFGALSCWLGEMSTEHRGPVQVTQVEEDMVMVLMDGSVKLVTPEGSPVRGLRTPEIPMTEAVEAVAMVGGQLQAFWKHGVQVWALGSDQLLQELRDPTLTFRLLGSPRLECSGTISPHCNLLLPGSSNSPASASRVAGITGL
Also: in the data inactive means no Kd found up to 30 µM.

Non-receptor tyrosine-protein kinase TYK2, sequence (P29597 whole entry): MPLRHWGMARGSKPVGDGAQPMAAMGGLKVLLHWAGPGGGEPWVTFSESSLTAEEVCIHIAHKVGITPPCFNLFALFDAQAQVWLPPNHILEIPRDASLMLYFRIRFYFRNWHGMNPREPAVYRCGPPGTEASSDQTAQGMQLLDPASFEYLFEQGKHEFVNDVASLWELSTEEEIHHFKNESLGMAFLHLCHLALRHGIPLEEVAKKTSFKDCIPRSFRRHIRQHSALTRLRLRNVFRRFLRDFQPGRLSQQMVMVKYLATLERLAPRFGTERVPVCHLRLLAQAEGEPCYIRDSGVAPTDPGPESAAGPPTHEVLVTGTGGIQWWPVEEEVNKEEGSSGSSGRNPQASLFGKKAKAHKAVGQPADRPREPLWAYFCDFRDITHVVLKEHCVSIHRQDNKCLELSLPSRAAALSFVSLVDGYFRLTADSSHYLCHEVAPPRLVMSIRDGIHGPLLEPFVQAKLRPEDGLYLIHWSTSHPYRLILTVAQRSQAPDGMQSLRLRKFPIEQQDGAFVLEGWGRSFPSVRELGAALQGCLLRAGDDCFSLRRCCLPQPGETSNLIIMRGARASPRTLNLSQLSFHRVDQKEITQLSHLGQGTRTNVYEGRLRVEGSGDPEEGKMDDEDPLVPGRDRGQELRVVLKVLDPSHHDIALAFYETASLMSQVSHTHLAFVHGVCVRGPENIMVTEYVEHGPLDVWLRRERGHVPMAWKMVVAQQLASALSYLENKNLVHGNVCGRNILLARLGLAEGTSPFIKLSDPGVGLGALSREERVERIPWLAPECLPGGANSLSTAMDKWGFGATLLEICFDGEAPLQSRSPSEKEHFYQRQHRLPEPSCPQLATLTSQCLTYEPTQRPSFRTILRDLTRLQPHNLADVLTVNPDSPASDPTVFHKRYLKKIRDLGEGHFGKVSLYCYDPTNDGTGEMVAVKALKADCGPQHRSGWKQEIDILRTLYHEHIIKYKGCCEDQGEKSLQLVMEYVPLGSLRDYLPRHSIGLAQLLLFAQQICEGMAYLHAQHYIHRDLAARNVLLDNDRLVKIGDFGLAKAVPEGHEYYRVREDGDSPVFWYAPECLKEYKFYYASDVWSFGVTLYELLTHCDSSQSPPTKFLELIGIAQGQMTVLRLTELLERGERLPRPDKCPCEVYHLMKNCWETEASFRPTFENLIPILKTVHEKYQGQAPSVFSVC

Consider `CO[C@H]1C[C@@H]2CC[C@@H](C)[C@@](O)(O2)C(=O)C(=O)N2CCCC[C@H]2C(=O)O[C@H]([C@H](C)C[C@@H]2CC[C@@H](OC(=O)C(C)(CO)CO)[C@H](OC)C2)CC(=O)[C@H](C)/C=C(\C)[C@@H](O)[C@@H](OC)C(=O)[C@H](C)C[C@H](C)/C=C/C=C/C=C/1C` [TEMSIROLIMUS], for which the Kd (in experiment [1]; in experiment [2]; in experiment [3]; in experiment [4]; in experiment [5]; at Activin receptor type-1) was > 30 µM (inactive) throughout. Further, the Kd in experiment [6] was > 30 µM (inactive).
For `COc1cc2c(Nc3ccc(Cl)c(Cl)c3F)ncnc2cc1OC[C@@H]1C[C@@H]2CN(C)C[C@@H]2C1` [TESEVATINIB], the Kd (in experiment [1]; in experiment [2]; in experiment [3]; in experiment [4]; in experiment [5]; on Activin receptor type-1) was > 30 µM (inactive) each time. Besides, the Kd in experiment [6] is > 30 µM (inactive).
Take `O=C(Cc1ccc(-c2ccc(OCCN3CCOCC3)cc2)cn1)NCc1ccccc1` [TIRBANIBULIN]: the Kd (in experiment [1]; in experiment [2]; in experiment [3]; in experiment [4]; in experiment [5]; at Activin receptor type-1) was > 30 µM (inactive) in each case. In addition, the Kd in experiment [6] was > 30 µM (inactive).
Consider `O=C1NC(=O)[C@@H](c2cn3c4c(cccc24)CCC3)[C@@H]1c1c[nH]c2ccccc12` [TIVANTINIB], for which the Kd in experiment [1] was > 30 µM (inactive); in experiment [2], 0.017 µM; in experiment [3], > 30 µM (inactive); in experiment [4] it was > 30 µM (inactive); in experiment [5], > 30 µM (inactive); at Activin receptor type-1 it was > 30 µM (inactive). The Kd in experiment [6] is > 30 µM (inactive).
On to `C[C@@H](NC(=O)c1ncnc(N)c1Cl)c1ncc(C(=O)Nc2cc(C(F)(F)F)c(Cl)cn2)s1` [TOVORAFENIB], for which the Kd (in experiment [1]; in experiment [2]; in experiment [3]; in experiment [4]; in experiment [5]; on Activin receptor type-1) was > 30 µM (inactive) in each case. Moreover, the Kd in experiment [6] is > 30 µM (inactive).
In the case of `Cc1cc(Nc2ncnc3ccc(NC4=NC(C)(C)CO4)cc23)ccc1Oc1ccn2ncnc2c1` [TUCATINIB], the Kd (in experiment [1]; in experiment [2]; in experiment [3]; in experiment [4]; in experiment [5]; on Activin receptor type-1) was > 30 µM (inactive) each time. Besides, the Kd in experiment [6] was > 30 µM (inactive).
Regarding `CC(C)c1cc(CNc2nc(Nc3cc(C4CC4)[nH]n3)cc(N3CCN(C)CC3)n2)on1` [XL-228], the Kd in experiment [1] is > 30 µM (inactive); in experiment [2] it was > 30 µM (inactive); in experiment [3], > 30 µM (inactive); in experiment [4] it was > 30 µM (inactive); in experiment [5], > 30 µM (inactive); on Activin receptor type-1 it was 0.005 µM (active). In addition, the Kd in experiment [6] was 0.015 µM (active).
For the molecule `C[C@@H](N)c1ccc(C(=O)Nc2ccnc3[nH]ccc23)cc1` [Y-39983], the Kd (in experiment [1]; in experiment [2]; in experiment [3]; in experiment [4]; in experiment [5]; at Activin receptor type-1) was > 30 µM (inactive) in each case. For the same molecule, the Kd in experiment [6] was > 30 µM (inactive).
Consider `CN1C/C=C/CCOc2cccc(c2)-c2ccnc(n2)Nc2cccc(c2)C1` [ZOTIRACICLIB], for which the Kd (in experiment [1]; in experiment [2]; in experiment [3]; in experiment [4]; in experiment [5]; at Activin receptor type-1) was > 30 µM (inactive) each time. The Kd in experiment [6] is > 30 µM (inactive).

By Kd is commonly meant the equilibrium constant for the complex coming apart.
